Measurements reported in patent US8394954B2, “Benzophenone hybrids as anticancer agents and processes for the preparation thereof” (Council of Scientific & Industrial Research, priority 2007, dated 2013).

Columns and labels:
[1] = test system: duplex-form calf thymus DNA (CT-DNA); assay: Thermal denaturation studies with CT-DNA; type: binding; details: [BPD]:[DNA] molar ratio 1:5, CT-DNA 100 μM, ligand 20 μM, pH 7.00
Method: Compounds were subjected to thermal denaturation studies with duplex-form calf thymus DNA (CT-DNA). Working solutions in aqueous buffer (10 mM NaH2PO4/Na2HPO4, 1 mM Na2EDTA, pH 7.00+0.01) containing CT-DNA (100 μm in phosphate) and the BPD (20 μm) were prepared by addition of concentrated BPD solutions in DMSO to obtain a fixed [BPD]/[DNA] molar ratio of 1:5. The DNA-BPD solutions were incubated at 37° C. for 0, 18, and 36 h prior to analysis. Samples were monitored at 260 nm using a Beckman DU-7400 spectrophotometer fitted with high performance temperature controller, and heating was applied at 1° C. min-1 in the 40-90° C. range. DNA helix coil transition temperatures (Tm) were obtained from the maxima in the (dA260)/dT derivative plots. Results are given as the mean±standard deviation from three determinations and are corrected for the effects of DMSO co-solvent using a linear correction term. Drug-induced alterations in DNA melting behavior are given by: ΔTm=Tm(DNA+BPD)−Tm(DNA alone), where the Tm value for the BPD-free CT-DNA is 69.0±0.01.

[2] = test system: sixty human tumor cells derived from nine cancer types; assay: NCI in vitro anticancer screen, 48 h exposure, SRB assay, mean over all lines; type: cell-based; details: for GI50: Homo sapiens, wide spectrum of activity against sixty cell lines in nine cell panels; for Log10LC50 mean graph midpoint (MG_MID) / Log10GI50 mean graph midpoint (MG_MID) / Log10TGI mean graph midpoint (MG_MID): human tumor cell lines, 48 h exposure; for Log10LC50 mean graph midpoint (MG_MID): 50% cell death; for Log10GI50 mean graph midpoint (MG_MID): 50% cell growth inhibition; for Log10TGI mean graph midpoint (MG_MID): total cell growth inhibition
Method: (§1) Compounds described herein were evaluated for in vitro anticancer activity. Particularly the 6a, 6b, 6d, 6h, 8a and 8b compounds were evaluated for in vitro anticancer activity against sixty human tumor cells derived from nine cancer types (leukemia, non-small-cell lung, colon, […], ovarian, prostate, and breast cancer) as shown in (Table 2 and 3). For the compound, dose response curves for each cell line were measured at a minimum of five concentrations at 10 fold dilutions. A protocol of 48 h continuous drug exposure was used and a sulforhodamine B (SRB) protein assay was used to estimate cell viability or growth. The concentration causing 50% cell growth inhibition (GI50), total cell growth inhibition (TGI 0% growth) and 50% cell death (LC50, −50% growth) compared with the control was calculated.

[3] = test system: Leukemia cancer cell lines; assay: NCI in vitro anticancer screen, leukemia panel; type: cell-based, human; details: average of six to nine cell lines; for GI50: Homo sapiens, read-out: Log GI50 (concentration in mol/L causing 50% growth inhibition) (converted)
Method: as §1

[4] = test system: Nonsmall-cell-lung cancer cell lines; assay: NCI in vitro anticancer screen, non-small-cell lung panel; type: cell-based, human; details: average of six to nine cell lines; for GI50: Homo sapiens, read-out: Log GI50 (concentration in mol/L causing 50% growth inhibition) (converted)
Method: as §1

Colon cancer cell lines = assay: NCI in vitro anticancer screen, colon panel; type: cell-based, human; details: average of six to nine cell lines; for GI50: Homo sapiens, read-out: Log GI50 (concentration in mol/L causing 50% growth inhibition) (converted)
Method: as §1

CNS cancer cell lines = assay: NCI in vitro anticancer screen, CNS panel; type: cell-based, human; details: average of six to nine cell lines; for GI50: Homo sapiens, read-out: Log GI50 (concentration in mol/L causing 50% growth inhibition) (converted)
Method: as §1

[5] = test system: Melanoma cancer cell lines; assay: NCI in vitro anticancer screen, melanoma panel; type: cell-based, human; details: average of six to nine cell lines; for GI50: Homo sapiens, read-out: Log GI50 (concentration in mol/L causing 50% growth inhibition) (converted)
Method: as §1

[6] = test system: Ovarian cancer cell lines; assay: NCI in vitro anticancer screen, ovarian panel; type: cell-based, human; details: average of six to nine cell lines; for GI50: Homo sapiens, read-out: Log GI50 (concentration in mol/L causing 50% growth inhibition) (converted)
Method: as §1

Renal cancer cell lines = assay: NCI in vitro anticancer screen, renal panel; type: cell-based, human; details: average of six to nine cell lines; for GI50: Homo sapiens, read-out: Log GI50 (concentration in mol/L causing 50% growth inhibition) (converted)
Method: as §1

[7] = test system: Prostate cancer cell lines; assay: NCI in vitro anticancer screen, prostate panel; type: cell-based, human; details: average of six to nine cell lines; for GI50: Homo sapiens, read-out: Log GI50 (concentration in mol/L causing 50% growth inhibition) (converted)
Method: as §1

Breast cancer cell lines = assay: NCI in vitro anticancer screen, breast panel; type: cell-based, human; details: average of six to nine cell lines; for GI50: Homo sapiens, read-out: Log GI50 (concentration in mol/L causing 50% growth inhibition) (converted)
Method: as §1

[8] = test system: human cancer cell lines of colon (Colo205), lung (Hop-62), cervix (SiHa), prostate (DU145, PC3), oral (DWD, HT1080), and breast (MCF7, Zr-75-1) origin; assay: In vitro evaluation of cytotoxic activity in selected human cancer cell lines, 48 h exposure; type: cell-based; details: 48 h continuous drug exposure
Method: In vitro evaluation of cytotoxic activity. Compounds 6a, 6b, 6d, 6e, 8a and 8b were evaluated for in vitro anticancer activity against nine human tumor cells derived from six cancer types (colon, prostate, oral, lung, cervix and breast cancer) as shown in Table 2. […] Compounds 6a, 6b, 6d, 6e, 8a and 8b have been evaluated for their in vitro cytotoxicity in selected human cancer cell lines of colon (Colo205), lung (Hop-62), cervix (SiHa), prostate (DU145, PC3), oral (DWD, HT1080), and breast (MCF7, Zr-75-1) origin. A protocol of 48 h continuous drug exposure has been used and an […] has been used to estimate cell viability or growth. The results are expressed as percent of cell growth determined relative to that of untreated control cells

[9] = test system: HOP-62, NCI-H23 cell lines; assay: NCI in vitro anticancer screen, non-small cell lung lines; type: cell-based; details: Homo sapiens, non-small cell lung cancer panel
Method: as §1
(§2) In the non-small cell lung cancer panel, the growth of HOP-62, […] were affected by compound 6d with G150 values as 11.7, 13.9 and 17.2 nM respectively. […] In vitro cytotoxicity of compounds 6d, 8a, and 8b in selected cancer cell lines has been illustrated in Table 3. The average G150 values for each cancer panel of compounds 6a, 6b, 6d, 6e, 8a and 8b have been illustrated in Table 2.

[10] = test system: colon cancer HCC-2988 cell line; assay: NCI in vitro anticancer screen, HCC-2988; type: cell-based; details: Homo sapiens
Method: as §1, §2

[11] = test system: colon cancer HCT-116 cell line; assay: NCI in vitro anticancer screen, HCT-116; type: cell-based; details: Homo sapiens
Method: as §1, §2

[12] = test system: colon cancer KM12 cell line; assay: NCI in vitro anticancer screen, KM12; type: cell-based; details: Homo sapiens
Method: as §1, §2

[13] = test system: CNS SF-295, SF-539, SNB-19 and SNB-75 cell lines; assay: NCI in vitro anticancer screen, CNS lines; type: cell-based; details: Homo sapiens; range over SF-295, SF-539, SNB-19 and SNB-75
Method: as §1, §2

[14] = test system: ovarian cancer OVCAR-4 cell line; assay: NCI in vitro anticancer screen, OVCAR-4; type: cell-based; details: Homo sapiens
Method: as §1, §2

[15] = test system: ovarian cancer OVCAR-5 cell line; assay: NCI in vitro anticancer screen, OVCAR-5; type: cell-based; details: Homo sapiens
Method: as §1, §2

[16] = test system: ovarian cancer OVCAR-8 cell line; assay: NCI in vitro anticancer screen, OVCAR-8; type: cell-based; details: Homo sapiens
Method: as §1, §2

[17] = test system: ovarian cancer SK-OV-3 cell line; assay: NCI in vitro anticancer screen, SK-OV-3; type: cell-based; details: Homo sapiens
Method: as §1, §2

[18] = test system: renal and breast cancer panels; assay: NCI in vitro anticancer screen, renal and breast panels; type: cell-based; details: Homo sapiens; range over renal and breast cancer panels
Method: as §1, §2

| SMILES | ΔTm after incubation at 37° C. for 0 h [1] [°C] | ΔTm after incubation at 37° C. for 18 h [1] [°C] | ΔTm after incubation at 37° C. for 36 h [1] [°C] | GI50 [2] [nM] | Log10LC50 mean graph midpoint (MG_MID) [2] | Log10GI50 mean graph midpoint (MG_MID) [2] | Log10TGI mean graph midpoint (MG_MID) [2] | GI50 [3] [nM] | GI50 [4] [nM] | GI50 (Colon cancer cell lines) [nM] | GI50 (CNS cancer cell lines) [nM] | GI50 [5] [nM] | GI50 [6] [nM] | GI50 (Renal cancer cell lines) [nM] | GI50 [7] [nM] | GI50 (Breast cancer cell lines) [nM] | cytotoxicity against some cancer cell lines [8] | other results |
| --- | --- | --- | --- | --- | --- | --- | --- | --- | --- | --- | --- | --- | --- | --- | --- | --- | --- | --- |
| O=C(CN1CCN(c2ccccn2)CC1)Nc1ccc(Cl)cc1C(=O)c1ccccc1Cl [Compound 6a, N1-[4-chloro-2-(2-chlorobenzoyl)phenyl]-2-[4-(2-pyridyl)piperazino]acetamide] | 1.2 | 1.7 | 2.2 | < 20000 | −4.35 | −6.51 | −6.54 | 3550 | 2510 | 5750 | 5620 | 1290 | 6760 | 1550 | 1780 | 3890 | promising cytotoxicity |  |
| O=C(CN1CCN(c2ncnc3ccccc23)CC1)Nc1ccc(Cl)cc1C(=O)c1ccccc1Cl [Compound 6d, N1-4-chloro-2-(2-chlorobenzoyl)phenylJ-2-[4-(4-quinazolinyl)piperazino]acetamide] | 1.5 | 1.9 | 2.7 | < 20000 | −4.62 | −6.82 | −6.56 | 151 | 389 | 229 | 224 | 204 | 219 | 214 | 398 | 178 | promising cytotoxicity | GI50 [9]: 11.7 nM; GI50 [10]: 11.6 nM; GI50 [11]: 11.2 nM; GI50 [12]: 11.4 nM; GI50 [13]: 11.6 to 24.2 nM; GI50 [14]: 30.6 nM; GI50 [15]: 14.9 nM; GI50 [16]: 30.5 nM; GI50 [17]: 78.6 nM; GI50 [18]: 11.6 to 43.4 nM |
| CC(C)(C)c1cn2cccc(C(=O)N3CCN(CC(=O)Nc4ccc(Cl)cc4C(=O)c4ccccc4Cl)CC3)c2n1 [Compound 6e] | 1.9 | 2.3 | 2.8 |  | −5.39 | −5.93 | −6.28 | 851 | 661 | 589 | 1410 | 3470 | 3550 | 1050 | 1350 | 2140 | promising cytotoxicity |  |
| O=C(CN1CCN(CCCOc2oc3ccccc3c(=O)c2-c2ccccc2)CC1)Nc1ccc(Cl)cc1C(=O)c1ccccc1Cl [Compound 8a] | 1.4 | 2.1 | 2.1 |  | −5.32 | −6.19 | −6.33 |  |  |  |  |  |  |  |  |  | promising cytotoxicity | Log GI50 (concentration in mol/L causing 50% growth inhibition) [3]: −6.11 mol/L; Log GI50 (concentration in mol/L causing 50% growth inhibition) [4]: −5.75 mol/L; Log GI50 (concentration in mol/L causing 50% growth inhibition) (Colon cancer cell lines): −5.75 mol/L; Log GI50 (concentration in mol/L causing 50% growth inhibition) (CNS cancer cell lines): −5.69 mol/L; Log GI50 (concentration in mol/L causing 50% growth inhibition) [5]: −5.79 mol/L; Log GI50 (concentration in mol/L causing 50% growth inhibition) [6]: −5.80 mol/L; Log GI50 (concentration in mol/L causing 50% growth inhibition) (Renal cancer cell lines): −5.71 mol/L; Log GI50 (concentration in mol/L causing 50% growth inhibition) [7]: −5.56 mol/L; Log GI50 (concentration in mol/L causing 50% growth inhibition) (Breast cancer cell lines): −5.70 mol/L |
